Among the data in ChEMBL document CHEMBL5223137, “Mapping Ligand Interactions of Bromodomains BRD4 and ATAD2 with FragLites and PepLites─Halogenated Probes of Druglike and Peptide-like Molecular Interactions” (J Med Chem, 2022) are IC50 values, retold here.

What is called IC50 is the concentration at which inhibition is half-maximal.

This assay concerns the target T1, ATPase family AAA domain-containing protein 2 (Homo sapiens, UniProt Q6PL18).
T1 sequence (Q6PL18 whole entry): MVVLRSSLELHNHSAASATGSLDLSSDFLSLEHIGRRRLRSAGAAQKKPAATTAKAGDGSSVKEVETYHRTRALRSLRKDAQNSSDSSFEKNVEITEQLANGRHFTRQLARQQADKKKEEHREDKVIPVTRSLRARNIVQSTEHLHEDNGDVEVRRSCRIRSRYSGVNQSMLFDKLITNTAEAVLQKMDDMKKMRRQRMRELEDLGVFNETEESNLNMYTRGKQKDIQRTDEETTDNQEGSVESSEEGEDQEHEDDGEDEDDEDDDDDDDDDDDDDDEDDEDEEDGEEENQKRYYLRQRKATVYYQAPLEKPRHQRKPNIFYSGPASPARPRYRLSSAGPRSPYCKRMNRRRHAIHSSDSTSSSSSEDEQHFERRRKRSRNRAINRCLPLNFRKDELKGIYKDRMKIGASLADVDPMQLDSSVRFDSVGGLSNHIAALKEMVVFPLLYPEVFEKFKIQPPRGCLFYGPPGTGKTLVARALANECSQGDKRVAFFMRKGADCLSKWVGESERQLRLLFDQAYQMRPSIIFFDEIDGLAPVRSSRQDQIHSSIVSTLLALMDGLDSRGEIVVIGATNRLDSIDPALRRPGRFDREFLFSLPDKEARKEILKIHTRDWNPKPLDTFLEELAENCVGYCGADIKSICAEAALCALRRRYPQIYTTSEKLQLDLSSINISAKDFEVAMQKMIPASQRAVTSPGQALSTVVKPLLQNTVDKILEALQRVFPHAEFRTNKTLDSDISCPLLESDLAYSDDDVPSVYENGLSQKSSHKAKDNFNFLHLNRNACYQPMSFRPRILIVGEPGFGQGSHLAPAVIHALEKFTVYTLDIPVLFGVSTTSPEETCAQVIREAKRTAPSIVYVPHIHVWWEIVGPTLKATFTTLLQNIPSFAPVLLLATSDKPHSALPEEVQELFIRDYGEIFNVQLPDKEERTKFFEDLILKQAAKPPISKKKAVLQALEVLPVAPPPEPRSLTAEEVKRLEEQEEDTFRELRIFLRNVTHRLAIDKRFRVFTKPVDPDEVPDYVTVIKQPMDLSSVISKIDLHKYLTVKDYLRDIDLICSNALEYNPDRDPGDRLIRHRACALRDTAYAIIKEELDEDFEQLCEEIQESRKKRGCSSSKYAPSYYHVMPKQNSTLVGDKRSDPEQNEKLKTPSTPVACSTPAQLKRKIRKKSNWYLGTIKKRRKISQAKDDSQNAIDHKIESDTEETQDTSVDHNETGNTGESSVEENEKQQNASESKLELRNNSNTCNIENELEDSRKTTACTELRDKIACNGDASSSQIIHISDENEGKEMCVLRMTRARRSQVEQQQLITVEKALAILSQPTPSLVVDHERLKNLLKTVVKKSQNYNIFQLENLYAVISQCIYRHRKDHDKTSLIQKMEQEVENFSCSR
The experiment in a line: Inhibition of His-6 tagged recombinant human ATAD2 (981 to 1108 residues) expressed in Escherichia coli BL21 (DE3) rosetta cells by HTRF assay. For orientation: In TR-FRET formats the signal depends on donor and acceptor labels being close together.
With `CN1CCNc2c1ccn(C)c2=O`, the IC50 is 822 µM.

`Cn1cc(Br)cc(N)c1=O`: the IC50 is 377 µM.

Consider `Cn1cccc(NCC2CCNCC2)c1=O`, for which the IC50 came to 543 µM.

For `Cn1ccc(NCc2ccccn2)c(N)c1=O`, the half-maximal inhibitory concentration (IC50) turned out to be 55 µM.
